Laboratory results as given in patent publication US8440674B2, “Substituted pyrimidine compounds as RAF inhibitors and methods of use” (Amgen Inc., priority 2005, dated 2013).
Like-named read-outs stand apart in the source and are kept apart here.

What was measured:
[1] = tested on: A375 cells, a human melanoma cell line having the V600E mutant Braf; test: B-Raf cell-based assay (ratio of phospho-ERK1/2 to total ERK1/2); conditions: A-375, 1 h, P-ERK/total ERK, 60 minute incubation, read-out: IC50 for the inhibition of B-raf as measured by the cell-based assay
Description: A cell-based assay was optimized to assay the ability of compounds to inhibit Braf activity in a whole cell context. […] The cell-based assay quantifies the ratio of phospho-ERK1/2 to total ERK1/2 and can thereby assay the cellular inhibition of Braf kinase activity.
A375 cells are plated into 96 well plates and grown to confluence. The cells are then changed into starve media (DMEM/0.1% BSA) for 60 minutes. Compounds in DMSO dose curves are then diluted in starve media and added to cells. […] After a 60 minute incubation the cells are fixed for 20 minutes at room temperature in 4% formaldehyde with 0.1%Triton X-100, protease and phosphatase inhibitors in PBS. The cells are washed four times in PBS then blocked for 60 minutes using a one to one mix of Odyssey blocking buffer (Li-Cor Biosciences, Inc) and PBS. Primary antibodies (rabbit anti-phospho p42/p44 MAPK (P-ERK1/2) from Cell Signaling Technology and mouse anti-ERK2 from Santa Cruz Biotechnology) are diluted in blocking buffer, added to the cells and incubated overnight at 4° C. The cells are then washed four times in PBS/0.1% Tween-20. Secondary antibodies (anti-mouse IRDye 800CW from Rockland, Inc and anti-rabbit AlexaFlour680 from Molecular Probes) are diluted in blocking buffer/0.5% Tween and incubated on cells for 60 minutes. After 4 washes in PBS/0.1% Tween-20 the microplate is scanned on an Odyssey Infrared Imager (Li-Cor Bioscience) which can read the signal given by the two secondary antibodies on their respective channels. The ratio of P-ERK/total ERK is determined and IC50s generated using Excel-XLfit software.

recombinant HuBraf V600E = recombinant HuBraf V600E (Homo sapiens, UniProt P15056, V600E); test: B-raf Homogenous Time Resolved Fluorescent (HTRF) kinase assay; assay type: biochemical; conditions: substrate MEK1, 10 uM ATP; threshold lists; read-out: IC50 for the inhibition of B-raf as measured by the HTRF assay
Description: A Homogeneous Time Resolved Fluorescence (HTRF) kinase assay was established to assay the ability of compounds to inhibit human mutant Braf kinase activity on the substrate MEK1. […] The final concentration of the kinase reaction buffer is 50 mM Tris-HCL pH 7.5, 10 mM MgCl2, 0.5% glucose, 0.5 mM DTT, 0.01% BSA.
The detection reaction proceeds for one hour and is read on a RubyStar (BMG Labtech) counter. IC50s for the test compounds are generated using Excel-XLfit software.

Sequence of recombinant HuBraf V600E (P15056 whole entry V600E): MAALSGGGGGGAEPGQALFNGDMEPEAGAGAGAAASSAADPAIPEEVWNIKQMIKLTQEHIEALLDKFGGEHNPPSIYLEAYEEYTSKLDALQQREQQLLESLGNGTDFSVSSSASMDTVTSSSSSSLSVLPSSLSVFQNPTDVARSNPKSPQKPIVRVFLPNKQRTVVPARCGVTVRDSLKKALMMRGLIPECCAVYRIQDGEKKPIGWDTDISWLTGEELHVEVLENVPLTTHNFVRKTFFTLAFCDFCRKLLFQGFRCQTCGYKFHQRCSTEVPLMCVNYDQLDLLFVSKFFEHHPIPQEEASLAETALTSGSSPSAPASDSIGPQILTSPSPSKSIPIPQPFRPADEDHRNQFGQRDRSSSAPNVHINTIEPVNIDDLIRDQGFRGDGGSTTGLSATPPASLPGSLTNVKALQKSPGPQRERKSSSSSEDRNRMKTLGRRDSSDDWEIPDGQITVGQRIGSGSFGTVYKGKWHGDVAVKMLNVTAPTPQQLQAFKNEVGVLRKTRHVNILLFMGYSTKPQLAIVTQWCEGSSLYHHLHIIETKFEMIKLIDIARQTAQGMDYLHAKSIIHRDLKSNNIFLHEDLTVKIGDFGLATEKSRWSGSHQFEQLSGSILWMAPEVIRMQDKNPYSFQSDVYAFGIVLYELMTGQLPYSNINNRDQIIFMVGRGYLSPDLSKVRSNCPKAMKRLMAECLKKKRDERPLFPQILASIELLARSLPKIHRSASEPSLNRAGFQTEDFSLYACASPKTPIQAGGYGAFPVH

IC50 ([1]; threshold list) [nM]	IC50 (recombinant HuBraf V600E) [nM]	IC50 ([1]; threshold lists) [nM]	Structure (SMILES)
≤ 500	≤ 250	–	Cc1ccc2c(Nc3ccccc3)nccc2c1Nc1ncccc1-c1ccncn1 [Example 9, 6-methyl-N^1-phenyl-N^5-(3-(4-pyrimidinyl)-2-pyridinyl)-1,5-isoquinolinediamine]
≤ 500	≤ 250	–	Cc1ccc2c(Nc3cccc(C(C)C)c3)nccc2c1Nc1ncccc1-c1ccncn1 [Example 12, 6-methyl-N^1-(3-(1-methylethyl)phenyl)-N^5-(3-(4-pyrimidinyl)-2-pyridinyl)-1,5-isoquinolinediamine]
≤ 500	≤ 250	–	Cc1ccc2c(Nc3cccc(Cl)c3)nccc2c1Nc1ncccc1-c1ccncn1 [Example 14, N^1-(3-chlorophenyl)-6-methyl-N^5-(3-(4-pyrimidinyl)-2-pyridinyl)-1,5-isoquinolinediamine]
≤ 500	≤ 250	–	Cc1ccc2c(Nc3ccc(C(C)(C)C)cc3)nccc2c1Nc1ncccc1-c1ccncn1 [Example 16, N^1-(4-(1,1-dimethylethyl)phenyl)-6-methyl-N^5-(3-(4-pyrimidinyl)-2-pyridinyl)-1,5-isoquinolinediamine]
≤ 500	≤ 250	–	CNc1ncc2cc(-c3c(C)ccc4c(Nc5cccc(C(F)(F)F)c5)nccc34)ccc2n1 [Example 24, N-methyl-6-(6-methyl-1-((3-(trifluoromethyl)phenyl)amino)-5-isoquinolinyl)-2-quinazolinamine]
≤ 500	≤ 250	–	CNc1ncc2cc(-c3c(C)ccc4c(Nc5cccc(OC(C)C)c5)nccc34)ccc2n1 [Example 25, N-methyl-6-(6-methyl-1-((3-((1-methylethyl)oxy)phenyl)amino)-5-isoquinolinyl)-2-quinazolinamine]
≤ 500	≤ 250	–	CNc1ncc2cc(-c3c(C)ccc4c(Nc5cccc(C(C)C)c5)nccc34)ccc2n1 [Example 26, N-methyl-6-(6-methyl-1-((3-(1-methylethyl)phenyl)amino)-5-isoquinolinyl)-2-quinazolinamine]
≤ 500	≤ 250	–	CNc1ncc2cc(-c3c(C)ccc4c(Nc5cc(C(C)(C)C)on5)nccc34)ccc2n1 [Example 27, 6-(1-((5-(1,1-dimethylethyl)-3-isoxazolyl)amino)-6-methyl-5-isoquinolinyl)-N-methyl-2-quinazolinamine]
–	–	≤ 5000	CNc1ncc2cc(-c3c(C)ccc4c(Nc5cccc(OC(F)(F)F)c5)nc(C)nc34)ccc2n1 [Example 86, 6-(2,7-dimethyl-4-(3-(trifluoromethoxy)phenylamino)quinazolin-8-yl)-N-methylquinazolin-2-amine]
≤ 500	–	≤ 1000	CNc1ncc2cc(-c3c(C)ccc4c(Nc5ccc(C#N)cc5)nccc34)ccc2n1 [Example 103]
≤ 500	–	≤ 1000	CNc1ncc2cc(-c3c(C)ccc4c(Nc5cccnc5)nn(C)c34)ccc2n1 [Example 163]
≤ 500	–	–	CNc1ncc2cc(-c3c(C)ccc4c(Nc5cccc(C#N)c5)nn(C)c34)ccc2n1 [Example 196]
–	–	≤ 5000	CNc1ncc2cc(-c3c(C)ccc4c(Nc5cccc(C(F)(F)F)c5)nccc34)c(=O)n(C)c2n1 [Example 354, 8-methyl-6-(6-methyl-1-(3-(trifluoromethyl)phenylamino)isoquinolin-5-yl)-2-(methylamino)pyrido[2,3-d]pyrimidin-7(8H)-one]
–	≤ 250	–	CNc1ncc2cc(-c3cccc4c(Nc5cccc(C(F)(F)F)c5)nccc34)c(=O)n(C)c2n1 [Example 360]
–	≤ 250	–	Cc1ccc2c(Nc3cccc(C(F)(F)F)c3)nccc2c1-c1ccc2nc(N)ncc2c1 [Example 361, 6-(6-methyl-1-(3-(trifluoromethyl)phenylamino)isoquinolin-5-yl)quinazolin-2-amine]
–	≤ 1000	–	CNc1ncc2cc(-c3c(C)ccc4c(Nc5cncc(OC(C)C)c5)nccc34)ccc2n1 [Example 378, 6-(1-(5-isopropoxypyridin-3-ylamino)-6-methylisoquinolin-5-yl)-N-methylquinazolin-2-amine]
–	–	≤ 5000	CNc1nccc(-c2cccnc2Oc2c(C)ccc3c(Nc4cccc(OC(F)(F)F)c4)nccc23)n1 [Example 413, 6-methyl-5-(3-(2-(methylamino)pyrimidin-4-yl)pyridin-2-yloxy)-N-(3-(trifluoromethoxy)phenyl)isoquinolin-1-amine]
–	–	≤ 5000	CNc1ncc2cc(-c3c(C)ccc4c(Nc5cccc(C(C)(C)O)c5)nncc34)ccc2n1 [Example 433, 2-(3-(6-methyl-5-(2-(methylamino)quinazolin-6-yl)phthalazin-1-ylamino)phenyl)propan-2-ol]
≤ 500	–	–	CNc1ncc2cc(-c3c(C)ccc4c(Nc5ccc6c(c5)NC(=O)CC6(C)C)nnc(C)c34)ccc2n1 [Example 438]

Further lines, the compound ahead of its results:

Structure (SMILES)	IC50 ([1]; threshold list) [nM]	IC50 (recombinant HuBraf V600E) [nM]	IC50 ([1]; threshold lists) [nM]
Cc1ccc2c(Nc3cccc(C(F)(F)F)c3)nccc2c1Nc1ncccc1-c1ccncn1 [Example 7, 6-methyl-N^5-(3-(4-pyrimidinyl)-2-pyridinyl)-N^1-(3-(trifluoromethyl)phenyl)-1,5-isoquinolinediamine]	≤ 500	≤ 250	–
COc1cc(Nc2nccc3c(Nc4ncccc4-c4ccncn4)cccc23)cc(C(F)(F)F)c1 [Example 8, N^1-(3-(methyloxy)-5-(trifluoromethyl)phenyl)-N^5-(3-(4-pyrimidinyl)-2-pyridinyl)-1,5-isoquinolinediamine]	≤ 500	≤ 250	–
Cc1ccc2c(Nc3cccc(C(C)(C)C)c3)nccc2c1Nc1ncccc1-c1ccncn1 [Example 10, N^1-(3-(1,1-dimethylethyl)phenyl)-6-methyl-N^5-(3-(4-pyrimidinyl)-2-pyridinyl)-1,5-isoquinolinediamine]	≤ 500	≤ 250	–
Cc1ccc2c(Nc3cccc(N(C)C)c3)nccc2c1Nc1ncccc1-c1ccncn1 [Example 11, N^1-(3-(dimethylamino)phenyl)-6-methyl-N^5-(3-(4-pyrimidinyl)-2-pyridinyl)-1,5-isoquinolinediamine]	≤ 500	≤ 250	–
Cc1ccc2c(Nc3cccc(OC(C)C)c3)nccc2c1Nc1ncccc1-c1ccncn1 [Example 13, 6-methyl-N^1-(3-((1-methylethyl)oxy)phenyl)-N^5-(3-(4-pyrimidinyl)-2-pyridinyl)-1,5-isoquinolinediamine]	≤ 500	≤ 250	–
Cc1ccc2c(Nc3cc(C(C)(C)C)nn3C)nccc2c1Nc1ncccc1-c1ccncn1 [Example 15, N^1-(3-(1,1-dimethylethyl)-1-methyl-1H-pyrazol-5-yl)-6-methyl-N^5-(3-(4-pyrimidinyl)-2-pyridinyl)-1,5-isoquinolinediamine]	≤ 500	≤ 250	–
CNc1nccc2c(Nc3ncccc3-c3ccncn3)c(C)ccc12 [Example 17, N^1-6-dimethyl-N^5-(3-(4-pyrimidinyl)-2-pyridinyl)-1,5-isoquinolinediamine]	≤ 500	≤ 250	–
Cc1ccc2c(Nc3cccc(OC(F)(F)F)c3)nccc2c1Nc1ncccc1-c1ccncn1 [Example 18, 6-methyl-N^5-(3-(4-pyrimidinyl)-2-pyridinyl)-N^1-(3-((trifluoromethyl)oxy)phenyl)-1,5-isoquinolinediamine]	≤ 500	≤ 250	–
COc1ccc(Nc2nccc3c(Nc4ncccc4-c4ccncn4)c(C)ccc23)cc1C(F)(F)F [Example 19, 6-methyl-N^1-(4-(methyloxy)-3-(trifluoromethyl)phenyl)-N^5-(3-(4-pyrimidinyl)-2-pyridinyl)-1,5-isoquinolinediamine]	≤ 500	≤ 250	–
CNc1cc(-c2cccnc2Nc2c(C)ccc3c(Nc4cc(C(C)(C)C)nn4C)nccc23)ncn1 [Example 69, N^1-(3-tert-butyl-1-methyl-1H-pyrazol-5-yl)-6-methyl-N^5-(3-(6-(methylamino)pyrimidin-4-yl)pyridin-2-yl)isoquinoline-1,5-diamine]	–	–	≤ 5000
Cc1ccc(C(F)(F)F)cc1Nc1nccc2c(Nc3ncccc3-c3ccncn3)c(C)ccc12 [Example 344, 6-methyl-N1-(2-methyl-5-(trifluoromethyl)phenyl)-N5-(3-(pyrimidin-4-yl)pyridin-2-yl)isoquinoline-1,5-diamine]	–	≤ 250	–
CNc1cc(-c2cccnc2F)ncn1 [Example 345, 6-(2-fluoropyridin-3-yl)-N-methylpyrimidin-4-amine]	≤ 500	–	≤ 1000
CNc1cc(-c2cccnc2Nc2c(C)ccc3c(Nc4cc(C(F)(F)F)ccc4C)nccc23)ncn1 [Example 349]	–	–	≤ 5000
